In one series the test system is HCT-116. The series is described as follows: Photocytotoxicity against human HCT-116 cells assessed as inhibition of cell growth incubated for 24 hrs by MTT assay. It counts as functional, cell-based. The note with it: HCT-116, 24 h. On the technique in general: Tetrazolium assays rely on reduction of a dye to a coloured formazan, in cell work by metabolically active cells.

The nature of series [1]: Emission property of the compound by fluorescence spectrophotometer analysis. In kind it is physicochemical.
Series [2] can be described thus: Photosensitizing ability of the compound in MeOH assessed as singlet oxygen generation at 408 nm measured upto 120 sec by DPBF based assay. In kind it is functional.
Series [3] has as its system MDA-MB-231. The series is described as follows: Cell cycle arrest in human MDA-MB-231 cells assessed as accumulation of cells at S phase incubated for 24 hrs by RNase A/PI staining based flow cytometric analysis relative to control. It counts as functional.
For series [4], the system named is MDA-MB-231. The series is described as follows: Induction of oxidative stress on human MDA-MB-231 cells assessed as increase in ROS population at 30 nM preincubated with compound for 24 hrs followed by 540 nm light irradiation for 1 hrs by CM-H2DCFDA staining based analysis (reference value: 1.6%). It counts as functional. To be noted: time 25 hrs.
Series [5] is described as follows: Drug localization in mitochondria of human MDA-MB-231 cells incubated for 1 hrs by Mitotracker deep red/Hoechst staining based confocal microscopic analysis. It counts as ADME. The note with it: mda-mb-231, 1 h.
Series [6] concerns MDA-MB-231. The series is described as follows: Cell cycle arrest in human MDA-MB-231 cells assessed as accumulation of cells at G1 phase incubated for 24 hrs by RNase A/PI staining based flow cytometric analysis relative to control. It counts as functional. In general terms: Flow cytometry measures light scatter and fluorescence of single cells or particles in a stream.
Series [7] deals with MDA-MB-231. The series is described as follows: Induction of apoptosis in human MDA-MB-231 cells assessed as late apoptotic cells at 15 nM incubated for 24 hrs under dark condition by Annexin V-FITC/PI staining based flow cytometric analysis relative to control. In kind it is functional.
The nature of series [8]: Fluorescence property of the compound assessed as fluorescence quantum yield in EtOH. It counts as physicochemical.
Series [9] is described as follows: Absorption property of the compound by UV-vis spectrophotometer. In kind it is physicochemical.
In series [10] the test system is MDA-MB-231. The series is described as follows: Induction of oxidative stress on human MDA-MB-231 cells assessed as increase in ROS population at 15 nM preincubated with compound for 24 hrs followed by 540 nm light irradiation for 1 hrs by CM-H2DCFDA staining based analysis (reference value: 1.6%). In kind it is functional. To be noted: time 25 hrs.
Series [11] has as its system MDA-MB-231. The experiment in a line: Induction of apoptosis in human MDA-MB-231 cells assessed as late apoptotic cells at 30 nM preincubated with compound for 24 hrs followed by 540 nm light irradiation for 1 hrs by Annexin V-FITC/PI staining based flow cytometric analysis (reference value: 17.1%). It counts as functional. The note with it: time 25 hrs.
The subject of series [12] is MDA-MB-231. The series is described as follows: Induction of apoptosis in human MDA-MB-231 cells assessed as necrotic cells at 30 nM preincubated with compound for 24 hrs followed by 540 nm light irradiation for 1 hrs by Annexin V-FITC/PI staining based flow cytometric analysis (reference value: 2.7%). To be noted: time 25 hrs. It counts as functional.
The test system of series [13] is MDA-MB-231. The series is described as follows: Induction of oxidative stress on human MDA-MB-231 cells assessed as increase in ROS population incubated for 24 hrs under dark condition by CM-H2DCFDA staining based analysis relative to control. It counts as functional.
In series [14] the test system is MDA-MB-231. The experiment in a line: Induction of apoptosis in human MDA-MB-231 cells assessed as early apoptotic cells at 15 nM incubated for 24 hrs under dark condition by Annexin V-FITC/PI staining based flow cytometric analysis relative to control. In kind it is functional.
A short description of series [15]: Absorption property of the compound assessed as decay lifetime. In kind it is physicochemical.
The nature of series [16]: Photocytotoxicity against human MCF-10A cells assessed as inhibition of cell growth incubated for 24 hrs by MTT assay. In kind it is toxicity, cell-based.
For series [17], the system named is MDA-MB-231. The series is described as follows: Cell cycle arrest in human MDA-MB-231 cells assessed as accumulation of cells at S phase at 15 nM preincubated with compound for 15 mins followed by light irradiation and measured after 3 to 24 hrs by RNase A/PI staining based flow cytometric analysis (reference value: 16.4%). To be noted: time 195-1455 min. It counts as functional.

In series [18] the test system is MDA-MB-231. The series is described as follows: Induction of apoptosis in human MDA-MB-231 cells assessed as early apoptotic cells at 15 nM preincubated with compound for 24 hrs followed by 540 nm light irradiation for 1 hrs by Annexin V-FITC/PI staining based flow cytometric analysis (reference value: 19.2%). In kind it is functional. The note with it: time 25 hrs.

Series [19] concerns MDA-MB-231. The experiment in a line: Cell cycle arrest in human MDA-MB-231 cells assessed as accumulation of cells at S phase at 30 nM preincubated with compound for 15 mins followed by light irradiation and measured after 3 to 24 hrs by RNase A/PI staining based flow cytometric analysis (reference value: 16.4%). It counts as functional. The note with it: time 195-1455 min.

The test system of series [20] is MDA-MB-231. The series is described as follows: Cell cycle arrest in human MDA-MB-231 cells assessed as accumulation of cells at G2/M phase at 15 nM preincubated with compound for 15 mins followed by light irradiation and measured after 3 to 24 hrs by RNase A/PI staining based flow cytometric analysis (reference value: 12.9%). In kind it is functional. To be noted: time 195-1455 min.

The test system of series [21] is MDA-MB-231. The experiment in a line: Cell cycle arrest in human MDA-MB-231 cells assessed as accumulation of cells at G2/M phase at 30 nM preincubated with compound for 15 mins followed by light irradiation and measured after 3 to 24 hrs by RNase A/PI staining based flow cytometric analysis (reference value: 12.9%). It counts as functional. The note with it: time 195-1455 min.

Series [22] concerns MDA-MB-231. The experiment in a line: Induction of apoptosis in human MDA-MB-231 cells assessed as necrotic cells at 15 nM incubated for 24 hrs under dark condition by Annexin V-FITC/PI staining based flow cytometric analysis relative to control. It counts as functional.
Series [23] relates to MDA-MB-231. The series is described as follows: Cell cycle arrest in human MDA-MB-231 cells assessed as accumulation of cells at G1 phase at 15 nM preincubated with compound for 15 mins followed by light irradiation and measured after 3 to 24 hrs by RNase A/PI staining based flow cytometric analysis (reference value: 65.7%). It counts as functional. The note with it: time 195-1455 min.

Series [24] deals with MDA-MB-231. The experiment in a line: Induction of apoptosis in human MDA-MB-231 cells assessed as early apoptotic cells at 30 nM preincubated with compound for 24 hrs followed by 540 nm light irradiation for 1 hrs by Annexin V-FITC/PI staining based flow cytometric analysis (reference value: 19.2%). It counts as functional. To be noted: time 25 hrs.
The test system of series [25] is MDA-MB-231. The series is described as follows: Induction of apoptosis in human MDA-MB-231 cells assessed as necrotic cells at 15 nM preincubated with compound for 24 hrs followed by 540 nm light irradiation for 1 hrs by Annexin V-FITC/PI staining based flow cytometric analysis (reference value: 2.7%). It counts as functional. The note with it: time 25 hrs.
The test system of the next series is MCF7. The series is described as follows: Photocytotoxicity against human MCF7 cells assessed as inhibition of cell growth incubated for 24 hrs by MTT assay. It counts as functional, cell-based. The note with it: MCF7, 24 h.
The nature of series [26]: Absorption property of the compound assessed as triplet quantum yield by UV-vis spectrophotometer. In kind it is physicochemical.
Series [27] is described as follows: Absorption property of the compound assessed as molar extinction co-effecient by UV-vis spectrophotometer. In kind it is physicochemical.
For another series, the system named is HT-29. The experiment in a line: Photocytotoxicity against human HT-29 cells assessed as inhibition of cell growth incubated for 24 hrs by MTT assay. In kind it is functional, cell-based. The note with it: HT-29, 24 h.
In series [28] the test system is MDA-MB-231. The series is described as follows: Induction of apoptosis in human MDA-MB-231 cells assessed as late apoptotic cells at 15 nM preincubated with compound for 24 hrs followed by 540 nm light irradiation for 1 hrs by Annexin V-FITC/PI staining based flow cytometric analysis (reference value: 17.1%). To be noted: time 25 hrs. It counts as functional.
The test system of series [29] is MDA-MB-231. The series is described as follows: Cell cycle arrest in human MDA-MB-231 cells assessed as accumulation of cells at G2/M phase incubated for 24 hrs by RNase A/PI staining based flow cytometric analysis relative to control. It counts as functional.
Series [30] relates to MDA-MB-231. The experiment in a line: Photocytotoxicity against human MDA-MB-231 cells assessed as inhibition of cell growth incubated for 24 hrs by MTT assay. In kind it is functional, cell-based. The note with it: MDA-MB-231, 24 h.
The test system of series [31] is MDA-MB-231. The experiment in a line: Cell cycle arrest in human MDA-MB-231 cells assessed as accumulation of cells at G1 phase at 30 nM preincubated with compound for 15 mins followed by light irradiation and measured after 3 to 24 hrs by RNase A/PI staining based flow cytometric analysis (reference value: 65.7%). It counts as functional. To be noted: time 195-1455 min.

The term IC50 denotes the concentration needed to halve the response being measured. Consider `CC1=C(I)C(C)=[N+]2C1=C(c1ccc(OCc3cn(CCOCCOCCOCCNC(=O)CCCCC4SCC5NC(=O)NC54)nn3)cc1)c1c(C)c(I)c(C)n1[B-]2(F)F` (stereo unspecified), for which the half-maximal inhibitory concentration (IC50) came out at 22.5 nM in the series on HCT-116, 21.8 nM in the series on MCF7, 27.5 nM with HT-29 and 18.7 nM in the series with MDA-MB-231 [30]. Further, the Activity in [1] is 551 nm; in series [2], 0.33; in the series with MDA-MB-231 [3] it was 17.7%; with MDA-MB-231 [4], 62.3%; in the series on MDA-MB-231 [6] it was 64.8%; in the series on MDA-MB-231 [7] it was 10.4%. Also, the Activity was 0.032 in series [8]; 534 nm in series [9]; 41.6% in the series with MDA-MB-231 [10]; 43% in the series with MDA-MB-231 [11]; 21.4% in the series on MDA-MB-231 [12]; 14.2% in the series with MDA-MB-231 [13]. Also, the Activity is recorded as 13% in the series on MDA-MB-231 [14]; 15.5% with MDA-MB-231 [17]; 22.4% with MDA-MB-231 [18]; 14.7% with MDA-MB-231 [19]; 21.8% in the series with MDA-MB-231 [20]; 22.9% in the series on MDA-MB-231 [21]. For the same molecule, the Activity in the series on MDA-MB-231 [22] came to 3%; in the series with MDA-MB-231 [23], 59%; with MDA-MB-231 [24], 8.3%; in the series with MDA-MB-231 [25], 7.3%; in series [26], 0.4; in series [27], 123000 M⁻¹ cm⁻¹. Moreover, the Activity in the series on MDA-MB-231 [28] is recorded as 30%; in the series on MDA-MB-231 [29], 13.7%; with MDA-MB-231 [31] it was 62.2%. Also, the Drug uptake entry in series [5] was “Active”. The Time in series [15] is recorded as 3.6 microsec. Besides, the IC50 at 24 h in series [16] was 196 nM.
Consider `CC/N=c1/cc2oc3cc(NCC)c(C)cc3c(-c3ccccc3C(=O)OCC)c-2cc1C.Cl`, for which, in [8], the Activity is 0.95.
For `C#CCOc1ccc(C2=C3C(C)=C(I)C(C)=[N+]3[B-](F)(F)n3c(C)c(I)c(C)c32)cc1`, the IC50 in the series with MDA-MB-231 [30] amounted to 25.2 nM.

Values taken from ChEMBL document CHEMBL5356947, “Mitochondria-targeted biotin-conjugated BODIPYs for cancer imaging and therapy” (RSC Med Chem, 2023).
